pIC50: −log10 of the molar value. Converted amounts (≈) assume the structure as drawn.
Experiments:
[1] = system: Mycobacterium tuberculosis; assay: Antimycobacterial activity against Mycobacterium tuberculosis H37Rv; format: functional
[2] = system: Mycobacterium tuberculosis; assay: Antimycobacterial activity against drug-sensitive Mycobacterium tuberculosis H37Rv; format: functional
[3] = system: Mycobacterium tuberculosis; assay: Antimycobacterial activity against Mycobacterium tuberculosis 7H12; format: functional
[4] = system: Mycolicibacterium smegmatis; assay: Antimycobacterial activity against Mycobacterium smegmatis; format: functional
[5] = Cytotoxicity against CHO-K1 cells; format: toxicity, cell-based, Cricetulus griseus; settings: Chinese hamster
[6] = Microsomal stability in human liver microsomes assessed as half life; format: ADME, Microsome
[7] = Aqueous solubility of the compound; format: physicochemical; settings: aqueous medium
[8] = Cytotoxicity against African green monkey Vero cells assessed as reduction in cell viability; format: toxicity, cell-based, Chlorocebus sabaeus; settings: for pIC50: African green monkey
[9] = system: Mycobacterium tuberculosis; assay: Antimycobacterial activity against Mycobacterium tuberculosis Erdman infected in BALB/c mouse model assessed as log reduction of bacterial load in lung at 200 mg/kg, po administered 5 days a week for 30 days untill day 58; format: functional; settings: time 58 day
[10] = system: Mycobacterium tuberculosis; assay: Antimycobacterial activity against replicating Mycobacterium tuberculosis H37Rv; format: functional
[11] = system: Mycobacterium tuberculosis; assay: Antibacterial activity against non-replicating Mycobacterium tuberculosis H37Rv-LUX assessed as inhibition of bacterial growth incubated for 9 days under anaerobic conditions followed by 28 hrs under aerobic conditions by LORA assay; format: functional; settings: time 244 hrs
[12] = system: Mycobacterium tuberculosis; assay: Antimycobacterial activity against XDR-Mycobacterium tuberculosis R506; format: functional
[13] = Selectivity index, ratio of IC50 for cytotoxicity against African green monkey Vero cells to MIC90 for antimycobacterial activity against MDR-Mycobacterium tuberculosis KZN494; format: toxicity, cell-based; settings: read-out: Selectivity Index
[14] = Selectivity index, ratio of IC50 for cytotoxicity against African green monkey Vero cells to MIC90 for antimycobacterial activity against drug-sensitive Mycobacterium tuberculosis H37Rv; format: toxicity, cell-based; settings: read-out: Selectivity Index
[15] = Selectivity index, ratio of IC50 for cytotoxicity against African green monkey Vero cells to MIC90 for antimycobacterial activity against MDR-Mycobacterium tuberculosis V2475; format: toxicity, cell-based; settings: read-out: Selectivity Index
[16] = system: Mycobacterium tuberculosis; assay: Antimycobacterial activity against drug-sensitive Mycobacterium tuberculosis V4207; format: functional
[17] = system: Mycobacterium tuberculosis; assay: Antimycobacterial activity against MDR-Mycobacterium tuberculosis KZN494; format: functional
[18] = system: Mycobacterium tuberculosis; assay: Antimycobacterial activity against XDR-Mycobacterium tuberculosis TF274; format: functional
[19] = Selectivity index, ratio of IC50 for cytotoxicity against African green monkey Vero cells to MIC90 for antimycobacterial activity against drug-sensitive Mycobacterium tuberculosis V4207; format: toxicity, cell-based; settings: read-out: Selectivity Index
[20] = Selectivity index, ratio of IC50 for cytotoxicity against African green monkey Vero cells to MIC90 for antimycobacterial activity against XDR-Mycobacterium tuberculosis R506; format: toxicity, cell-based; settings: read-out: Selectivity Index
[21] = system: Mycobacterium tuberculosis; assay: Antimycobacterial activity against MDR-Mycobacterium tuberculosis V2475; format: functional
[22] = Selectivity index, ratio of IC50 for cytotoxicity against African green monkey Vero cells to MIC90 for antimycobacterial activity against XDR-Mycobacterium tuberculosis TF274; format: toxicity, cell-based; settings: read-out: Selectivity Index

Compound: Cc1ccn2c(C(=O)NCc3ccccc3)c(C)nc2c1
- MIC99 [1]: 0.2 µM (≈ 0.0559 µg/mL)

Compound: Cc1ccc2nc(C)c(C(=O)NCc3cccs3)n2c1
- MIC90 [2]: 0.22 µM (≈ 0.0628 µg/mL)

Compound: CC(C)(C)OC(=O)N1CCN(c2nc(=O)c3cc(C(F)(F)F)cc([N+](=O)[O-])c3s2)CC1
- MIC90 [3]: 0.28 µM (≈ 0.129 µg/mL)

Compound: Cc1ccn2nc(C)c(C(=O)NCc3ccc(C(F)(F)F)cc3)c2c1
- MIC90 [1]: 0.069 µM (≈ 0.024 µg/mL)

Compound: COc1ccn2nc(C)c(C(=O)NCc3ccc(N4CCC(c5ccc(OC(F)(F)F)cc5)CC4)cc3)c2c1
- MIC90 [1]: 0.011 µM (≈ 0.00592 µg/mL)

Compound: Cc1ccn2c(C(=O)N3CCN(c4nc(=O)c5cc(C(F)(F)F)cc([N+](=O)[O-])c5s4)CC3)c(C)nc2c1
- MIC90 [3]: 2.1 µM (≈ 1.12 µg/mL)

Compound: Cc1ccn2c(C(=O)NCc3ccc(C(=O)OCc4ccccc4)cc3)c(C)nc2c1
- MIC90 [3]: 0.21 µM (≈ 0.0868 µg/mL)

Compound: Cc1ccn2c(C(=O)NCc3ccc(C(=O)N4CCN(c5nc(=O)c6cc(C(F)(F)F)cc([N+](=O)[O-])c6s5)CC4)cc3)c(C)nc2c1
- MIC90 [3]: > 10 µM

Compound: Cc1nc(-c2ccc(F)cc2)sc1-c1cn2ccccc2n1
- MIC90 [4]: 90.2 µM (≈ 27.9 µg/mL)

Compound: N#Cc1cccc(Nc2cc(C(F)(F)F)ccc2-c2cnc3ccccn23)c1
- MIC90 [1]: 6.08 µM (≈ 2.3 µg/mL)
- pIC50 [5]: 3.66

Compound: Cc1cn2c(C(=O)NCc3ccc(N4CCN(c5ccc(OC(F)(F)F)cc5)CC4)c(F)c3)c(C)nc2s1
- half-life [6]: 28 min
- solubility [7]: 50 µM (≈ 27.4 µg/mL)
- CC50 ([8]; chlorocebus sabaeus): > 100 µM
- Activity [9]: 0.3 log10CFU
- MIC90 [10]: 0.008 µM (≈ 0.00438 µg/mL)
- MIC90 [11]: 1.1 µM (≈ 0.602 µg/mL)

Compound: Cc1nc(-c2ccc(F)cc2)sc1-c1cn2ccc(Br)cc2n1
- MIC90 [4]: 53.6 µM (≈ 20.8 µg/mL)

Compound: CCc1ccn2c(C(=O)NCc3ccc(C)cc3)c(C)nc2c1
- MIC90 [10]: 0.004 µM (≈ 0.00123 µg/mL)

Compound: Cc1ccc(CNC(=O)Cc2c(C)nc3ccc(C)cn23)cc1
- MIC90 [1]: 1.7 µM (≈ 0.523 µg/mL)

Compound: Cc1nc(-c2ccccc2)sc1-c1cn2ccc(Br)cc2n1
- MIC90 [4]: 67.5 µM (≈ 25 µg/mL)

Compound: Cc1ccc2nc(C)c(C(=O)NCCCC3CCCCC3)n2c1
- MIC90 [12]: 0.1 µM (≈ 0.0313 µg/mL)
- selectivity ratio [13]: ≥ 1024
- selectivity ratio [14]: ≥ 1024
- selectivity ratio [15]: ≥ 1024
- MIC90 [16]: 0.1 µM (≈ 0.0313 µg/mL)
- MIC90 [17]: 0.05 µM (≈ 0.0157 µg/mL)
- MIC90 [18]: 0.2 µM (≈ 0.0627 µg/mL)
- selectivity ratio [19]: ≥ 1024
- pIC50 [8]: 3.92
- selectivity ratio [20]: ≥ 1024
- MIC90 [21]: 0.2 µM (≈ 0.0627 µg/mL)
- MIC90 [2]: 0.1 µM (≈ 0.0313 µg/mL)
- selectivity ratio [22]: ≥ 1024

Compound: Cc1nc2ccc(Cl)cn2c1C(=O)NCCCC1CCCCC1
- MIC90 [12]: 0.75 µM (≈ 0.25 µg/mL)
- selectivity ratio [13]: ≥ 1024
- selectivity ratio [14]: ≥ 1024
- selectivity ratio [15]: ≥ 1024
- MIC90 [16]: 0.37 µM (≈ 0.124 µg/mL)
- MIC90 [17]: 0.09 µM (≈ 0.03 µg/mL)
- MIC90 [18]: 1.5 µM (≈ 0.501 µg/mL)
- selectivity ratio [19]: ≥ 1024
- pIC50 [8]: ≤ 3.72
- selectivity ratio [20]: ≥ 1024
- MIC90 [21]: 0.37 µM (≈ 0.124 µg/mL)
- MIC90 [2]: 0.19 µM (≈ 0.0634 µg/mL)
- selectivity ratio [22]: ≥ 1024

Compound: Cc1ccc(-c2nc3ccc(C)cn3c2CC(=O)N(C)C)cc1 [ZOLPIDEM]
- MIC90 [10]: 10 µM (≈ 3.07 µg/mL)
